The values below come from patent publication US10695330B2, “Methods of treatment” (Global Blood Therapeutics, Inc., priority 2015, dated 2020).

Holding throughout (assay type): in vivo
For data set [1], the target named is T1, Hb (Mus musculus, UniProt P01942).
T1 construct: from tissue; host or cells: whole blood (red blood cells) of dosed C57BL / C57BL/6J mice
As to the kind of experiment: Tolerance to hypoxia mouse model: PK/PD (Hb occupancy, hemoximetry of blood from dosed mice). The following applies: healthy mice. The procedure:
(§1) Male, C57BL mice were fitted with a dorsal skinfold window chamber for direct visualization of an intact microvascular bed (Yalcin & Cabrales 2012). After the window chamber was implanted, the animals were left to recover for at least 2 days, before undergoing surgery a second time for arterial (carotid) catheter implantation (PESO tubing). After two day of recovery, mice were dosed orally with Compound 1 (70 or 140 mg/kg) or vehicle only and Hb O2 affinity was determined by hemoximetry. Two hours post dose, conscious mice were placed in a restraining tube with a longitudinal slit from which the protruding window chamber provided a microscopic stage for observation. In this setup, gas flow rate (0.2 L/min) into the tube is diffused by a cotton filter barrier. Baseline measurements for normoxia (21% O2) were completed within an hour of restraining mice. The animals were then exposed to stepwise hypoxia by decreasing the O2 concentration to 15, 10 and 5%. Animals were kept at each hypoxic level for 30 min. Mice were allowed 15 min of acclimatization at each new hypoxic level before measurements were taken. During hypoxia, changes in systemic and microvascular hemodynamics, blood gases, blood lactate, tissue partial pressure of O2 (PO2), tissue hypoxia and tolerance to hypoxia were evaluated. At each time point, mice with adequate systolic blood pressure (BP) were counted as survived and mice with severe hypotension (BP≤60 mmHg) were counted as non-survived and were euthanized.
Oxygen equilibrium curves for mice blood were obtained by deoxygenation of O2-equilibrated samples in a Hemox buffer at 37° C., using a Hemox Analyzer (TCS Scientific Corporation, New Hope, Pa.). […] The absorbance at wavelengths that correspond to the isosbestic point (570 nm) and deoxy Hb (560 nm) was recorded as a function of the sample O2 tension (pO2). During deoxygenation, the pO2 and percent O2 saturation values were collected to obtain the OECs and the p50 values (partial pressure of O2 at which Hb is 50% saturated with O2). p50 values were calculated using a non-linear regression analysis. […]

The test system of data set [2] is healthy mice subjected to extreme hypoxia. The data set is described as follows: Tolerance to hypoxia mouse model: systemic parameters, tissue hypoxia, survival. The following applies: for survival: after 1.5 hours of exposure to 5% O2 hypoxia. The procedure:
as §1
MAP (mean arterial pressure) and heart rate (HR) were recorded continuously from Carotid catheter. Hct was measured from centrifuged arterial blood samples taken in heparinized capillary tubes. Arterial blood was collected in heparinized glass capillaries (50 μL) and immediately analyzed for PO2, PCO2, base excess, and pH. Arterial Hb saturations were measured using a CO-Oximeter.
High resolution non-invasive microvascular PO2 measurements were made using phosphorescence quenching microscopy (PQM). Tissue PO2 was measured in regions in between functional capillaries (Yalcin & Cabrales 2012). Hb O2 saturations in the microcirculation are calculated using the O2 equilibrium curves measured.
Tissue hypoxia was studied via immunohistochemistry staining for pimonidazole bound to hypoxic zones in vital tissues. Mice received a bolus intraperitoneal injection (IP) injection of the hypoxic marker Hypoxyprobe-1 (pimonidazole 40 mg/kg) and 5 mg/kg Hoechst 33342 diluted in PBS (total volume, 100 μL). At the end of the study, mice were euthanized and tissues extracted for histology. Sections are stained with monoclonal antibody against pimonidazole. Images for pimonidazole antibody-stained areas and Hoechst were recorded. Results are reported as the ratio of pimonidazole stained area to the total cellular area by co-localization of pimonidazole and Hoechst.

Data set [3] has as its system mice with LPS-induced ALI. As to the kind of experiment: LPS-induced acute lung injury mouse model with hypoxic challenge: inflammation, SpO2, survival. The conditions noted are these: for survival: after 4 hours of exposure to 5% O2 hypoxia; for increase of SpO2, of control value: 5% O2 hypoxia. The procedure: Adult, 8-10-week-old male C57BL/6J mice (Jackson Laboratory, Bar Harbor, Me.), were anesthetized with isoflurane, injected with 100 μg LPS (Sigma, St. Louis, Mo.) in 100 μL PBS by direct intratracheal injection. After 24 hours, mice were given Compound 1 (70 or 140 mg/kg formulated in dimethylacetamide, polyethylene glycol 400 (PEG400) and 40% cavitron in a ratio of 1:5:4, respectively) or vehicle only (5 μL/g) by oral gavage 2 hours prior to placement in a hypoxia chamber. Mice were exposed to either 10 or 5% O2 for 4 hours. Oxygen saturation (SaO2) was measured with a pulse oximeter (STARR Life Sciences, Oakmont, Pa.) at baseline and hourly during hypoxic exposure. During hypoxic exposure, mice were monitored continuously and a moribund check was done every 15 minutes. Time to death was assessed by time to moribund status. Mice were determined to be moribund if they could not right themselves when placed in a supine position.
Blood was collected by cardiac puncture in the hypoxic chamber. Blood gases were measured using the i-STAT portable analyzer within the hypoxic environment (Abaxis, Union City, Calif.). Remaining blood samples were used for hemoximetry and pharmacokinetic analysis. For sample collection, mice were euthanized with pentobarbital overdose. A bronchoaleveolar lavage (BAL) was performed with 900 uL Saline. Blood was collected by retro orbital puncture, and then spun to collect plasma. Lungs were removed and flash frozen. All samples were stored at −80° C. until further study. BAL inflammatory cell counts and differentials were determined manually after staining cytospins with DiffQuik. BAL protein was measured using a Pierce BCA Protein Assay Kit (Thermo Scientific, Waltham, Mass.).
Using a MouseOx, peripheral arterial O2 saturation (SpO2) was measured during hypoxia. SpO2 was measured for each group every hour during hypoxia. In general, SpO2 decreased during hypoxia for all groups. […] For example, during 5% O2 hypoxia, Compound 1 at 70 mg/kg or 140 mg/kg increased SpO2 by 22% or 31% of control value, respectively.
During exposure hypoxia, mice were monitored continuously and a moribund check was done every 15 minutes. Time to death was assessed by time to moribund status. Mice were determined to be moribund if they could not right themselves when placed in a supine position.

T1 sequence (P01942 2-142 limits assumed): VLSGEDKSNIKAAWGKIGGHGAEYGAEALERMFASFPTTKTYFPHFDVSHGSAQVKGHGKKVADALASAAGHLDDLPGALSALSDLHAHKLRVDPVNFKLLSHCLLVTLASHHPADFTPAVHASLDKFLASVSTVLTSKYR
T1 sequence (P02088 2-147 partner limits assumed): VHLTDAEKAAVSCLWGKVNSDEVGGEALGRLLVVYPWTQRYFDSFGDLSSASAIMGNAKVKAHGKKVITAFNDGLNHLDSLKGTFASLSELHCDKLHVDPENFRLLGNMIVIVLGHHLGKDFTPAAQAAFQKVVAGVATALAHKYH

On to `O=Cc1c(O)cccc1OC[C@@H]1CCCCN1C(=O)c1cccnc1` [Compound 1, (S)-2-hydroxy-6-((1-nicotinoylpiperidin-2-yl)methoxy)benzaldehyde], for which the “calculated Hb occupancy” value in data set [1] (70 mg/kg oral) is recorded as around 30%; in data set [1] (140 mg/kg oral), around 60%. Further, in data set [1] (70 or 140 mg/kg oral, vs vehicle), the “Hb O2 affinity (left-shift in the OEC) in whole blood from dosed mice” value was “dose-dependent increase in Hb O2 affinity relative to control”. Further, the survival in data set [2] (70 mg/kg) was 16%; in data set [2] (140 mg/kg), 83%; in data set [3] (70 mg/kg) it was 60%; in data set [3] (140 mg/kg), 86%. Moreover, the “arterial blood pH” value in data set [2] (during 10% and 5% O2 hypoxia) is reported as “normal during hypoxia”. Besides, the “arterial blood oxygen saturation (SaO2)” value in data set [2] (during hypoxia, 70 or 140 mg/kg oral, vs control) is listed as “dose-dependently increased SaO2 relative to control”. In addition, in data set [2] (during hypoxia, vs control), the “heart rate (HR)” value is “sustained higher”. Also, the “mean arterial pressure (MAP)” value in data set [2] (during hypoxia, vs control) is reported as “sustained higher mean BP”. Further, in data set [2] (extreme hypoxia (5% O2), vs control), the blood lactate levels result is “reduced lactate levels relative to control”. Moreover, the “hypoxic tissues positively stained by pimonidazole” value in data set [2] (extreme hypoxia, vs control) is “reduced hypoxic tissues positively stained by pimonidazole relative to control”. Also, the “arterial blood partial pressure of O2 (PaO2)” value in data set [2] (stepwise hypoxia, 70 or 140 mg/kg oral) is “the PaO2 was the same in Compound 1-treated and control mice”. Besides, the “inflammation or lung injury (BALF total cells, neutrophils, macrophages, total protein)” value in data set [3] (100 μg LPS intratracheal) is listed as “no significant effect on inflammation or lung injury”. The “increase of SpO2, of control value” was 22% in data set [3] (70 mg/kg) and 31% in data set [3] (140 mg/kg). The “SpO2 compared to control” value in data set [3] (during 10% and 5% O2 hypoxia, average over 4 hours) is on record as “higher in Compound 1 dosed mice compared to control”.
